Results taken from patent US20240382487A1, “NOVEL COPI/ARF1-LIPOLYSIS PATHWAY INHIBITOR AND COMPOUND FOR ERADICATING CANCER STEM CELLS AND INDUCING DAMP-MEDIATED ANTI-TUMOR IMMUNE RESPONSE” (FUDAN UNIVERSITY, priority 2020, published 2024).

Columns and labels:
Arf1 = molecular target: T1, Arf1 (Homo sapiens, UniProt P84077); assay: Active Arf1 Pull-Down and Detection Kit (GTP-bound Arf1); assay type: biochemical; conditions: liver cancer Huh-7 cell lysate; FIG. 1
T1 construct: Active Arf1 was detected by using The Thermo Scientific Pierce Active Arf1 Pull-Down and Detection Kit (Cat #16121) with liver cancer Huh-7 cell lysate; endogenous in cells; host or cells: Huh-7 liver cancer cells (lysate)
T1 sequence (P84077 whole entry): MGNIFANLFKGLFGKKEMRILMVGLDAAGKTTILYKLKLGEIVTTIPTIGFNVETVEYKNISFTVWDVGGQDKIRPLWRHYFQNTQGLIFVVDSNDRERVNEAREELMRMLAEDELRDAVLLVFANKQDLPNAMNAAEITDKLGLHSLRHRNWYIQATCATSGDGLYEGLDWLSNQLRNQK
Text: Active Arf1 was detected by using The Thermo Scientific Pierce Active Arf1 Pull-Down and Detection Kit (Cat #16121) with liver cancer Huh-7 cell lysate. It is a complete kit for selective enrichment and detection of GTP-bound Arf1 GTPase through specific protein interaction with the GGA3 protein-binding domain (FIG. 1).

tumor cells = assay: Tumor cytotoxicity experiments in vitro (all lines, general statements); assay type: cell-based; conditions: HT29, LoVo, Huh7, H460, A549; FIG. 2-7
Text: (§1) In different tumor cytotoxicity experiments in vitro (FIG. 2-FIG. 7), including colorectal cancer cell lines HT29 and LoVo cells, liver cancer cell Huh7, lung cancer cells H460 and A549, the arf1 inhibitor could all inhibit tumor cell growth (FIG. 2-FIG. 6), and there was a dose-dependent manner (FIG. 7).

[1] = tested on: Drosophila stem cell tumors; assay: Drosophila screen (stem cell / intestinal tumors); assay type: in vivo
Text: (§2) We tested 10 reported Arf1 inhibitors (Bill et al., 2011; Boal et al., 2010; Feng et al., 2004; Newton et al., 2006; Ohashi et al., 2012; Sáenz et al., 2009; Sorieul et al., 2011; Viaud et al., 2007), including brefeldin A (BFA), Golgicide A (GCA), LM11, Secin16, Secin H3, Secin B7, Exo1, Exo2, LG8, and LG18, on Drosophila stem cell tumors and normal human bone marrow hematopoietic stem cells (HSCs).

mice = assay: Toxicity in mice, oral gavage; assay type: in vivo
[2] = tested on: liver tumors in MYC-ON mice; assay: MYC-ON liver tumor model; assay type: in vivo; conditions: gavage, 5 per week for 4 weeks, analyzed 10 weeks later
Text: We used the Tet system to generate transgenic mice conditionally expressing the myc pro-oncogene in hepatocytes, […] myc/lap TTA (lt2-myc) (shachaf et al., 2004). We crossed tre-myc mice with a transgenic line, lap TTA. in which the liver activator protein (LAP) promoter drives the expression of tetracycline trans-activator protein (TTA) in hepatocytes. We confirmed this by discontinuing the feeding of doxycycline (myc-ON) activated myc transgene expression in 3-week-old mice. Subsequently. all transgenic mice overexpressing myc succumbed to liver tumors with a mean latency to tumor onset of 12 weeks, as previously reported (shachaf et al., 2004). In this lap TTA/tet-off myc conditional transgenic mouse model, myc overexpression in adult mice reproducibly induces liver cancer, similar to hepatocellular carcinoma and/or hepatoblastoma. The transgenic tumor invades the entire liver locally and is frequently associated with malignant peritoneal effusions that spread to the thoracic cavity by metastasis and invade the lung parenchyma.
For the mouse liver tumor model, mating cages and weaning cages were administrated by a grain based rodent diet (Bio-Serv. Cat #14-727-450) containing 200 mg/kg doxycycline, and the mice were induced tumors at 6 weeks of age, by changing to a normal diet. Mice were divided into three groups, control, Du 101 treated and du102 treated. The control group was given 100 by gavage using a feeding tube 100 μl/10 g body weight (BW) 20% DMSO+80% corn oil. Du 101 treated groups were treated with 25 mg/ml Du 101. The stock solution was diluted 1:4 with corn oil to make the working solution. Dul02 treatment groups were treated with 25 mg/ml du102 stock solution diluted 1:4 with corn oil to make working solutions. The mixed working solution was administered to mice by gavage using a feeding tube. Starting from the second week of myc-0n, 5 injections per week ([…]) were given for 4 weeks, mice were monitored every 2 days, and 10 weeks later mice were euthanized and analyzed for tumor growth.
For the myc-on liver tumor model, antibodies were i.p. Mg/kg) was injected once a week for 5 consecutive weeks, the first Doxycycline was discontinued weekly after injection. Antibodies used to treat mice were as follows: anti-CD4 (clone GK1.5, BioXcell, Cat #BE0003-1), anti-CD8 a (clone 2.43, BioXcell, Cat #BE0061) Or […] rat IgG (bioxcell, cat #be0094) isotype control antibody. From the second week of myc-on initiation lasted for 4 weeks, Du 102 and DMSO were administered by gavage needle as described above, mice were monitored every 2 days, and 10 weeks later mice were euthanized and analyzed for tumor growth.
For the myc-on liver tumor model, antibodies were i.p. Injection once a week for 5 weeks, and doxycycline was discontinued weekly after the first injection. Antibodies used to treat mice were as follows: 100 ug/mouse Armenian hamster anti mouse PD1 (J43, bioxcell, cat #be0033-2) and 100 ug/mouse Armenian hamster isotype IgG (bioxcell. cat #bp0091) was used as controls. For 4 weeks from the second week of myc-on, Du 102 and DMSO were administered by gavage needle as described above, mice were monitored every 2 days. and 10 weeks later mice were euthanized and analyzed for tumor growth. Coadministration of anti-PD-1 antibodies may allow the use of lower, less toxic doses of du102, thus avoiding known side effects.

[3] = tested on: normal human bone marrow hematopoietic stem cells (HSCs); assay: Toxicity on normal hematopoietic stem cells
Text: as §2

[4] = tested on: colorectal cancer cell line HT29; assay: In vitro cell line screening, HT29; assay type: cell-based
Text: as §1

[5] = tested on: colorectal cancer cell line LoVo; assay: In vitro cell line screening, LoVo; assay type: cell-based
Text: as §1

liver cancer cell Huh7 = assay: In vitro cell line screening, Huh7; assay type: cell-based
Text: as §1

lung cancer cells H460 = assay: In vitro cell line screening, H460; assay type: cell-based
Text: as §1

lung cancer cells A549 = assay: In vitro cell line screening, A549; assay type: cell-based
Text: as §1

SMILES | inhibition of arf1 activation (Arf1) | tumor suppressive / inhibitory effect on tumor cells (tumor cells) | in vivo tumor suppressive effects ([1]; Drosophila screen, FIG. 8) | killing Drosophila stem cell tumors ([1]; in vivo) | toxic effects (mice; oral gavage for 60 consecutive days, FIG. 10) | toxic effects (mice; up to 50 mg/kg by oral gavage for 21 consecutive days, FIG. 9) | liver tumor numbers [2] | toxicity (killing normal HSCs) [3] | tumor suppressive effect [4] | tumor suppressive effect [5] | tumor suppressive effect (liver cancer cell Huh7) | tumor suppressive effect (lung cancer cells H460) | tumor suppressive effect (lung cancer cells A549)
C(=N\Nc1ncnc2sc3c(c12)CCCC3)/c1ccc2[nH]ccc2c1 [Du 101] | potent inhibitors | Some Tumor Suppressive Effect | good in vivo tumor suppressive effects | effective | induced toxic effects | no toxic effects were observed | 44.7 | relatively low toxicity |  |  |  |  | 
Cc1ccc(/C=C/Cc2cccc3c2C2=C(CCCC2)C3)cc1C [compound 104] |  |  |  |  |  |  |  |  | effective tumor suppressive effects | effective tumor suppressive effects | effective tumor suppressive effects | effective tumor suppressive effects | effective tumor suppressive effects
C1=Cc2cc(/C=C/Cc3cccc4c3C3=C(CCCC3)C4)ccc2C1 [compound 107] |  |  |  |  |  |  |  |  | effective tumor suppressive effects | effective tumor suppressive effects | effective tumor suppressive effects | effective tumor suppressive effects | effective tumor suppressive effects
C(=C\c1ccccc1)/Cc1cccc2c1C1=C(CCCCCC1)C2 [compound 109] |  |  |  |  |  |  |  |  | effective tumor suppressive effects | effective tumor suppressive effects | effective tumor suppressive effects | effective tumor suppressive effects | effective tumor suppressive effects
